Here are results for 21 compounds from patent US20260234123A1, “Inhibitors of NLRP3” (Mwyngil Therapeutics, Inc., priority 2023, published 2026).

The experiment relates to IL1b release THP-1. Nature of the experiment: IL1b release THP-1 (ELISA). The experiment is classed as cell-based. The note with it: Homo sapiens; average EC50; THP-1 cells primed with 1 μg/ml LPS 4 h, stimulated with 10 μM Nigericin 2 h; IL-1β in supernatant by ELISA; read-out: THP 1 IL 1b, EC50. The method in brief:
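THP-1 cells in serum-free medium were primed with 1 μg/ml LPS for 4 h, then stimulated with 10 μM nigericin for 2 h at 37° C., 5% CO2. IL-1β in supernatant measured by ELISA; EC50 values binned into A–E ranges.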
On to `CCN1CCC[C@@H](Nc2nnc(-c3ccc(C(F)(F)F)cc3NS(=O)(=O)CC)cc2C)C1` [Compound 62, (R)—N-(2-(6-((1-Ethylpiperidin-3-yl)amino)-5-methylpyridazin-3-yl)-5-(trifluoromethyl)phenyl) ethanesulfonamide], for which the EC50 (commonly the concentration giving half of the maximal effect) was less than 0.5 µM. Regarding `Cc1cc(-c2ccc(C(F)(F)F)cc2NS(C)(=O)=O)nnc1N[C@@H]1CCCN(C)C1` [Compound 7, (R)—N-(2-(5-Methyl-6-((1-methylpiperidin-3-yl)amino)pyridazin-3-yl)-5-(trifluoromethyl)phenyl) methanesulfonamide], the concentration for a half-maximal effect (EC50) was less than 0.5 µM. In the case of `Cc1cc(N[C@@H]2CCCN(C3CCCC3)C2)nnc1-c1ccc(C(F)(F)F)cc1NS(C)(=O)=O` [Compound 33], the EC50 is less than 0.5 µM.

Turning to `CCN1CCC[C@@H](Nc2cc(C)c(-c3ccc(C(F)(F)F)cc3NC(=O)C(F)(F)F)nn2)C1` [Compound 116, N-[2-[6-[[(3R)-1-ethyl-3-piperidyl]amino]-4-methyl-pyridazin-3-yl]-5-(trifluoromethyl)phenyl]-2,2,2-trifluoro-acetamide], the EC50 is less than 0.5 µM. The result for `Cc1cc(-c2ccc(C(F)(F)F)c3cn[nH]c23)nnc1N[C@@H]1CCCN(C)C1` [Compound 17, (R)-4-Methyl-N-(1-methylpiperidin-3-yl)-6-(4-(trifluoromethyl)-1H-indazol-7-yl)pyridazin-3-amine] reads 5 to 30 µM; that for `Cc1cc(N[C@@H]2CCCN(C(C)C)C2)nnc1-c1ccc(C(F)(F)F)cc1NC(=O)C(C)(C)C` [Compound 138, N-[2-[6-[[(3R)-1-isopropyl-3-piperidyl]amino]-4-methyl-pyridazin-3-yl]-5-(trifluoromethyl)phenyl]-2,2-dimethyl-propanamide], 1 to 5 µM.

Consider `Cc1cc(-c2ccc(C(F)(F)F)cc2NC(=O)C(C)(C)C)nnc1N[C@@H]1CCCN(C(C)C)C1` [Compound 135, N-[2-[6-[[(3R)-1-isopropyl-3-piperidyl]amino]-5-methyl-pyridazin-3-yl]-5-(trifluoromethyl)phenyl]-2,2-dimethyl-propanamide], for which the EC50 was in the range of 0.5 to 1 µM.

Regarding `CCN1CCC[C@@H](Nc2cc(C)c(-c3ccc(C(F)(F)F)cc3N)nn2)C1` [Compound 130, (R)-6-(2-Amino-4-(trifluoromethyl)phenyl)-N-(1-ethylpiperidin-3-yl)-5-methylpyridazin-3-amine], the EC50 was less than 0.5 µM.

For `CCN1CCC[C@@H](Nc2nnc(-c3ccc(C(F)(F)F)cc3NS(C)(=O)=O)cc2C(F)(F)F)C1` [Compound 45, N-[2-[6-[[(3R)-1-ethyl-3-piperidyl]amino]-5-(trifluoromethyl)pyridazin-3-yl]-5-(trifluoromethyl)phenyl]methanesulfon-amide], the concentration for a half-maximal effect (EC50) fell in the range of 0.5 to 1 µM. Turning to `CCN1CCC[C@@H](Nc2cc(C(F)(F)F)c(-c3ccc(C(F)(F)F)cc3NS(C)(=O)=O)nn2)C1` [Compound 49, N-[2-[6-[[(3R)-1-ethyl-3-piperidyl]amino]-4-(trifluoromethyl)pyridazin-3-yl]-5-(trifluoromethyl)phenyl]methanesulfon-amide], the 50% effective concentration (EC50) lay within 1 to 5 µM. Turning to `Cc1cc(N[C@@H]2CCCN(CC(C)(C)O)C2)nnc1-c1ccc(C(F)(F)F)cc1NS(C)(=O)=O` [Compound 47], the EC50 lay in the range of 0.5 to 1 µM.

Take `Cc1cc(N[C@@H]2CCCN(C)C2)nnc1-c1ccc(C(F)(F)F)c(N)c1N` [Compound 100, (R)-3-(4-methyl-6-((1-methylpiperidin-3-yl)amino)pyridazin-3-yl)-6-(trifluoromethyl)benzene-1,2-diamine]: the EC50 was less than 0.5 µM. With `Cc1cc(-c2ccc(C(F)(F)F)cc2NS(C)(=O)=O)nnc1N[C@@H]1CCCN(C2CC2)C1` [Compound 42, (R)—N-(2-(6-((1-Cyclopropylpiperidin-3-yl)amino)-5-methylpyridazin-3-yl)-5-(trifluoromethyl)phenyl) methanesulfonamide], the EC50 is less than 0.5 µM. For `CCN1CCC[C@@H](Nc2nnc(-c3ccc(C(F)(F)F)cc3NS(C)(=O)=O)cc2C2CC2)C1` [Compound 28, (R)—N-(2-(5-Cyclopropyl-6-((1-ethylpiperidin-3-yl)amino)pyridazin-3-yl)-5-(trifluoromethyl)phenyl) methane-sulfonamide], the EC50 was less than 0.5 µM. Turning to `Cc1cc(N[C@@H]2CCCNC2)nnc1-c1ccc(C(F)(F)F)cc1NS(C)(=O)=O` [Compound 71, N-[2-[4-methyl-6-[[(3R)-3-piperidyl]amino]pyridazin-3-yl]-5-(trifluoromethyl)phenyl]methanesulfon-amide], the concentration giving a half-maximal response (EC50) fell in the range of 1 to 5 µM. For the compound `Cc1cc(-c2ccc(C(F)(F)F)c3nn[nH]c23)nnc1N[C@@H]1CCCN(C)C1` [Compound 21, 4-methyl-N-[(3R)-1-methyl-3-piperidyl]-6-[7-(trifluoromethyl)-3H-benzotriazol-4-yl]pyridazin-3-amine], the EC50 was in the range of 5 to 30 µM. For `COCCN1CCC[C@@H](Nc2cc(C)c(-c3ccc(C(F)(F)F)cc3NS(C)(=O)=O)nn2)C1` [Compound 56, (R)—N-(2-(6-((1-(2-Methoxyethyl)piperidin-3-yl)amino)-4-methylpyridazin-3-yl)-5-(trifluoromethyl)phenyl) methanesulfonamide], the EC50 was in the range of 1 to 5 µM.

As to `Cc1cc(N[C@@H]2CCCN(C(C)C)C2)nnc1-c1ccc(C(F)(F)F)cc1NC(=O)C(C)C` [Compound 132, (R)—N-(2-(6-((1-Isopropylpiperidin-3-yl)amino)-4-methylpyridazin-3-yl)-5-(trifluoromethyl)phenyl) isobutyramide], the concentration for a half-maximal effect (EC50) is less than 0.5 µM. Take `CN1CCC[C@@H](Nc2nnc(-c3ccc(C(F)(F)F)c4nn[nH]c34)cc2C(F)(F)F)C1` [Compound 24]: the EC50 is more than 30 µM. Turning to `Cc1cc(-c2ccc(C(F)(F)F)cc2NC(=O)C(F)F)nnc1N[C@@H]1CCCN(C(C)C)C1` [Compound 120], the 50% effective concentration (EC50) was less than 0.5 µM. With `CCN1CCC[C@@H](Nc2nnc(-c3ccc(C(F)(F)F)cc3NS(C)(=O)=O)c3c2CCCC3)C1` [Compound 37, (R)—N-(2-(4-((1-Ethylpiperidin-3-yl)amino)-5,6,7,8-tetrahydrophthalazin-1-yl)-5-(trifluoromethyl)phenyl) methane sulfonamide], the EC50 was less than 0.5 µM.
